Results taken from patent US20080234183A1, “Cell Penetrating Peptides” (priority 2002, published 2008).

Columns and labels:
[1] = system: Bowes cells; test: Cell viability measurement (CellTiter-Glo); type: cell-based, human; details: 24 h in 10% FBS-MEM
Protocol: Bowes human melanoma cells were obtained from American Type Culture Collection (Manassas, Va.). Bowes cells were cultured in Minimal Essential Medium with Earie's sats complemented with Glutamax-I, non-essential amino acids, sodium pyruvate, penicillin, streptomycin (referred on figures as “MEM”) and 10% foetal bovine serum (FBS). All media components for Bowes cells were from invitrogen Corporation (Paisley, UK). Trypsin/EDTA was from PAA laboratories GmbH (Linz, Austria). Cells were subcultured once a week, seeding 200 000 cells per T75. For the viability assays, 50 000 cells (in 300 μl) were seeded per a well in a 24-well-plate a day before the experiment. K562 human erythroleukemia cells were obtained from American Type Culture Collection (Manassas, Va.). K562 cells were cultured in RPMI-1640 medium complemented with Glutamax-I, penicillin, streptomycin (referred in FIG. 32-35 as “RPMI”) and foetal bovine serum (7.5%). All media components for K562 cells were from invitrogen Corporation (Paisley, UK). […]
The stock solutions of the conjugates (1 mM) were prepared in sterile water and the stock solution of MTX in 10% DMSO in water. […] Then 300 μl was transferred to a white polystyrene FluoroNunc™ plate (Nunc A/S, Roskilde, Denmark) and luminescence was recorded at dual-scanning microplate spectrofluorometer (SPECTRAmax® GEMINI XS, Molecular Devices, Sunnyvale, Calif.).

[2] = system: LoVo cells; test: Internalisation of biotinylated selCPPs, fluorescence microscopy; type: cell-based, human
Protocol: One aspect of the present invention thus comprises a method for screening the cellular uptake of a broad variety of CPPs in vitro, wherein cells are grown on glass cover slips to suitable, such as 50%, density, whereupon the media is changed to serum free and a blotinylated peptide solution is added. The cells are then incubated, washed, fixed and the peptides are visualised by staining with, e.g. avidin-FITC, or streptavidin-TRITC, and the cell nuclei are counterstained, e.g. with Hoechst. Images are preferably obtained with a fluorescence microscope and evaluated.
FIG. 5. Example of inactivated selCPP. Internalisation of YTA-2 (A) compared to YTA-2 ps (B) In LoVo cells, both biotynilated peptides detected by TRITC-avidin at 37° C.
The cells were grown on round glass cover slips (12 mm, GTF, Sweden) in a 24-well plate to approximately 50% confluence. The media was changed to serum free and the biotinylated peptide solutions were added. The cells were incubated for 30 min at 37 or 4° C. The cells were washed twice with PBS, fixed with 4% paraformaldehyde solution 15 min at room temperature (dark) and then permeabilised in 30 mM HEPES buffer containing 0.5% w/v Triton X-100, 3 min on Ice. Sites for unspecific binding were blocked In PBS containing 3% (w/v) bovine serum albumin, overnight at 4° C. The peptides were visualised by staining with avidin-FrTC or streptavidin-TRITC (Molecular Probes, the Netherlands). The cell nuclei were stained with Hoechst 33258 (0.5 μg/ml) for 5 min, after which the cover slips were washed 3 times with PBS and mounted in 25% glycerol in PBS. The images were obtained with a Leica DM IRE2 fluorescence microscope (Leica Microsystem., Sweden) and processed in PhotoShop 6.0 software (Adobe Systems Inc., CA) (See e.g. FIG. 38-40).

[3] = biological target: T1, MMP2 (Homo sapiens, UniProt P08253); test: Specific cleavage by matrix metallo proteinase-2; type: biochemical; details: mass spectrometry, data not shown
T1 construct: check the specific cleavage of YTA-2 ps by active MMP-2
T1 sequence (P08253 110-660): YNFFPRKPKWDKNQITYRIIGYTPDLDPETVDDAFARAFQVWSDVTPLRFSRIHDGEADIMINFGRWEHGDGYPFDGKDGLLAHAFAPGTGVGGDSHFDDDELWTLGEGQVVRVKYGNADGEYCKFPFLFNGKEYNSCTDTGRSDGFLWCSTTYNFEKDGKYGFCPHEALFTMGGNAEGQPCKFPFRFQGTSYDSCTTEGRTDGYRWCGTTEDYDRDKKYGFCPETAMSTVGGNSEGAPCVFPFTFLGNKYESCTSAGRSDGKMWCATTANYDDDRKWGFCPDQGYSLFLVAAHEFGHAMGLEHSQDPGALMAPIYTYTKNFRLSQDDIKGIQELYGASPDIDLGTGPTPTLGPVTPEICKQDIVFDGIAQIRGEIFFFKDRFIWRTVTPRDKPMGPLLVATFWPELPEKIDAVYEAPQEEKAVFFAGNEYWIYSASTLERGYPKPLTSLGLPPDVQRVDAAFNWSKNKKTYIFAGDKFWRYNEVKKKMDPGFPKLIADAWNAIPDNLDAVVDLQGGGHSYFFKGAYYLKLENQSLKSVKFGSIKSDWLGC
Protocol: (data not shown). […] The next step in the development of this technique is to check the specific cleavage of YTA-2 ps by active MMP-2. It is performed by a fluorescence/quencher assay, wherein the MMP-2 substrate YTA-2 ps upon cleavage increases in fluorescence intensity. The correct cleavage is further checked by mass spectrometry.

[4] = system: cells; test: Protein internalisation by YTA-2 of Fluo-Streptavidin; type: cell-based; details: 67 kDa fluorescein labelled streptavidin linked to biotinylated peptide
Protocol: FIG. 39. Protein internalisation by YTA-2 of Fluo-Streptavidin 37° C. and T/E, showing the delivery property of a selCPP.
FIG. 40. Protein internalisation by YTA-2 of Fluo-Streptavidin 4° C. and T/E, showing the delivery property and temperature independency of a selCPP.

Row | cleavage by MMP2 [3] | Substance | toxic effect on cell viability [1] | Comment (staining/localisation) [2] | Entry into cells ([2]; 37° and 4° C.) | cargo transport [4]
1 |  | Apa-γGlu-Gly-pVEC | more toxic than Apa-Glu-Gly-pVEC |  |  | 
2 | confirmed by mass spectrometry | YTAIAWVKAFIRKLRK [YTA-2] |  | stain also nuclear | can efficiently enter cells | can transport large cargo molecules into cells
